Values joined by “and” are separate entries in the source; they are usually repeats but may differ in a detail not shown here. Identical values can stand only once.

For orientation: Ki means a measure of affinity in units of concentration, obtained from inhibition or displacement.

Holding throughout (conditions): 25 °C
For experiment [1], the target named is T1, Phosphoenolpyruvate carboxykinase, cytosolic [GTP] (Rattus norvegicus, UniProt P07379).
T1 sequence (P07379 whole entry): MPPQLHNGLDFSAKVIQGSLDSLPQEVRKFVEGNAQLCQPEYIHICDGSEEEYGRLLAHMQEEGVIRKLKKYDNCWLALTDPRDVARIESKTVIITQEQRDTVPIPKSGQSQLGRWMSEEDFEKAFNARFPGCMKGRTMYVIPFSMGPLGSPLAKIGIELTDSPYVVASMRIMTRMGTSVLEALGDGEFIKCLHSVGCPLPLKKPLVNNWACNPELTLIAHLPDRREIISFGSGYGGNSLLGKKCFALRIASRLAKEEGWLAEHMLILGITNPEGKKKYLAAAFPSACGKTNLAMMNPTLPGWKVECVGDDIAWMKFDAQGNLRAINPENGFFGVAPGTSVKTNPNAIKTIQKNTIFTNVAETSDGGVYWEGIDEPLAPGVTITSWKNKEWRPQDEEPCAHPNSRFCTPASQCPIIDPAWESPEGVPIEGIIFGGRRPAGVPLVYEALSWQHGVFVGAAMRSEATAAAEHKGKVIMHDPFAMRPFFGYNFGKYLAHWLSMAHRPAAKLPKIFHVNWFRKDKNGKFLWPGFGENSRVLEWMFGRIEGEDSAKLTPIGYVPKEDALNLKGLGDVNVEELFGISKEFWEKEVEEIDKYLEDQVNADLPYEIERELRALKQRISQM
Briefly: PEPCK Assay (OAA to PEP-allosteric). The procedure: (§1) Allosteric binding site. The activity of PEPCK in the direction from OAA to PEP was assayed with 50 mM HEPES (pH 7.5), 10 mM DTT, 4 mM MgCl2, 0.5 mM GTP, 1 mM ADP, 187.5 μM NADH, 45 units of LDH, 50 μg of PK, 0.2 mM MnCl2, and (∼1−2 μg) of PEPCK. The assay mixture was incubated for 5 min at 25 °C and the reaction started with the addition of OAA to a final concentration of 350 μM. A second reaction without PEPCK was run simultaneously to account for the spontaneous decarboxylation of OAA. Inhibition assays with MPA were conducted under both variable OAA and variable GTP concentrations. When the GTP concentration was varied, MgCl2 concentrations were also varied to keep a constant 4:1 metal:nucleotide ratio.

The target of experiment [2] is T1, Phosphoenolpyruvate carboxykinase, cytosolic [GTP]. Briefly: PEPCK Assay (OAA to PEP). The procedure:
as §1, with “OAA/PEP” for “Allosteric”

For experiment [3] the target is unchanged. Briefly: PEPCK Assay (PEP to OAA-allosteric). The procedure: (§2) Allosteric binding site. When the enzyme was assayed in the direction of PEP →OAA, the standard reaction mixture contained 50 mM HEPES (pH 7.5), 2mMMnCl2, 10mMDTT, 0.5mMGDP, 2mMPEP, 187.5 μM NADH, 50 mM KHCO3, and 11 units of MDH. The reaction proceeded at 25 °C and was started with the addition of PEPCK (∼1−2 μg). Mutants were assayed as previously described with the exception that ~30 μg of enzyme was used to initiate the assay.14 Inhibition assays with MPA were conducted with varying concentrations of PEP with a fixed GDP concentration of 500 or 25 μM. Inhibition assays against GDP were conducted at a fixed concentration of PEP of 2 or 5 mM.

Experiment [4] has the same target. Nature of the experiment: PEPCK Assay (PEP to OAA). As to the method:
as §2, with “OAA/PEP” for “Allosteric”

With `O=C(O)c1ncccc1S` [3-Mercaptopicolinic acid (MPA)], the Ki was 121 µM in experiment [1]; 45 µM in experiment [2]; 180 µM and 83 µM in experiment [3]; 83 µM and 37 µM in experiment [4].
